Source: US5077309A, “Prostaglandins” (National Research Development Corporation, priority 1986, dated 1991)

Experiments:
[1] = biological target: T1, human platelet system (thromboxane receptor sites) (Homo sapiens, UniProt P21731); test: Human platelet system: antagonism of 11,9-(epoxymethano) PGH2-induced aggregation of washed platelets (Gaddum-Schild KB); type: cell-based; details: agonist 11,9-(epoxymethano) PGH2, compound added 5 minutes before agonist, read-out: affinity constant KB (converted)
T1 construct: Washed platelets are prepared by centrifugation; endogenous in cells; host or cells: washed human platelets
T1 sequence (P21731 1-343): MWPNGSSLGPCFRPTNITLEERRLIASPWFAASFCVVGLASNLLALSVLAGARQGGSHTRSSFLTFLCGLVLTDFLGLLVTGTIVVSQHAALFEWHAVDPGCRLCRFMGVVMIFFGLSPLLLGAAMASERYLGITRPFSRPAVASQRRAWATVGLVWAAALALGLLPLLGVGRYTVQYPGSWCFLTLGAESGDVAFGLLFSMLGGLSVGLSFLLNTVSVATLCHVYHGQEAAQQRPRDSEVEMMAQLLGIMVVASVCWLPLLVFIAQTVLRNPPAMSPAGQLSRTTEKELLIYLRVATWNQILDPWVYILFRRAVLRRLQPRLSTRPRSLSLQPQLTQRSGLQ
Description: Washed platelets are prepared by centrifugation of plateletrich human plasma at 600×g for 20 minutes. The platelet pellet is resuspended in Ca^++ -free Kreb's solution.
Addition of the agonist 11.9-(epoxymethano) PGH2 (1×10^-7 to 5×10^-7 M) causes immediate aggregation recorded as an increase in light transmission (600 nm). In a second experiment the compound under test is added 5 minutes previous to the addition of the PGH2 analogue. The dose of the PGH2 analogue added is then increased to a level which gives a similar response to that obtained in the absence of antagonist.
(§1) In the case of each system, the affinity constant, KB, for the compound under test is calculated according to the Gaddum-Schild equation (based on Law of Mass Action). [formula]

[2] = tested on: human platelet system; test: Prostacyclin-like activity in human platelet system (antagonism of ADP); type: cell-based
[3] = tested on: guinea pig bronchoconstriction; test: Modified Konzett-Rossler test: inhibition of PGH2 analogue-induced bronchoconstriction in anaesthetised guinea pig; type: in vivo
Description: A male albino guinea pig is anaethetised with a mixture of allyl barbituric acid and ethyl carbamate and the guinea pig is given intravenously a dose of 0.35 μg/kg of 11,9-(epoxymethane) PGH2. After a further period of 10 minutes, the guinea pig is treated intravenously with a dose of 0.3 mg/kg of trans-5-(6'-carboxy-5'-oxahexyl)-6-(1'-[N-phenylthiocarbamoyl-hydrazono]-ethyl-bicyclo [2,2,2] octane.
The guinea pig is then used in a modified Konzett-Rossler test which gives a measure of the inhibition produced by the test compound of the bronchoconstiction resulting from administration of the PGH2 derivative. This test involves artificially respiring the animals and measuring the amount of residual air with a pressure transducer.

[4] = biological target: T2, rabbit aorta (Oryctolagus cuniculus, UniProt Q6WQI8); test: Rabbit aorta system: antagonism of 11,9-(epoxymethano) PGH2 tension response in thoracic aorta strips (Gaddum-Schild KB); type: cell-based; details: agonist 11,9-(epoxymethano) PGH2; compound added 30 minutes before agonist; head KB × 10^-6
T2 construct: functional antagonism of U46619 contraction
T2 sequence (Q6WQI8 1-233): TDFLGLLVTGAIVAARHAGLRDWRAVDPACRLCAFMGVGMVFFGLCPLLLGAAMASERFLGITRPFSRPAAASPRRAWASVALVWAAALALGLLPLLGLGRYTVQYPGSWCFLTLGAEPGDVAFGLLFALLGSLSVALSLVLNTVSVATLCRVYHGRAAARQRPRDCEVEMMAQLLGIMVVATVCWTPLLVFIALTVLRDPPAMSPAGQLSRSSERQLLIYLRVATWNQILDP
Description: Spiral strips of thoracic aorta are suspended in Kreb's Henseleit solution and aerated with 95% O2 /5% CO2 at 37° C. Tension changes are recorded with a Grass FT03 force transducer. Initially, cumulative dose response curves to 11,9-(epoxymethanol) PGH2 (2×10^-9,1×10^-8, […] and 2.5×10^-7 M) are obtained. In a second experiment the individual compounds are added 30 minutes previous to the addition of the series of agonist doses.
as §1

[5] = biological target: T3, guinea pig trachea (Cavia porcellus, UniProt A0A286Y4I8); test: Guinea pig trachea system: antagonism of 11,9-(epoxymethano) PGH2 tension response in trachea strips (Gaddum-Schild KB); type: cell-based; details: agonist 11,9-(epoxymethano) PGH2; compound added 50 minutes before agonist; head KB × 10^-6
T3 construct: from tissue; host or cells: guinea pig trachea, spiral strips
T3 sequence (A0A286Y4I8 1-347): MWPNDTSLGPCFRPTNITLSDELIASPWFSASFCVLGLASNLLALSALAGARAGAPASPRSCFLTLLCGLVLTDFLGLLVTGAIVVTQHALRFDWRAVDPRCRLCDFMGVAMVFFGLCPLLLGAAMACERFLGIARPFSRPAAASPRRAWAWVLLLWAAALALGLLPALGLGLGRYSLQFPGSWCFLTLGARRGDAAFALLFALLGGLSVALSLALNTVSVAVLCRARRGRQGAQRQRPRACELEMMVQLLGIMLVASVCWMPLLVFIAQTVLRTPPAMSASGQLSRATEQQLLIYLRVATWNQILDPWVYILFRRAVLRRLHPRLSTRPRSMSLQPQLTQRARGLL
Description: Spiral strips of trachea are suspended in Kreb's-Henseleit solution, additionally containing atropine sulphate (2×10^-8 M) and indomethacin (10^-6 M), aerated with 95% O2 /5% CO2 and maintained at 37° C. Tension changes are recorded with a Grass FT03 force transducer. Initially, cumulative dose response curves to the agonist 11,9-(epoxymethano) PGH2 are obtained (typically at the same concentrations as for the rabbit aorta system). In a second experiment, the compound under test is added 50 minutes previous to the addition of the series of agonist doses.
as §1

Row | Kb [4] [nM] | Kb [5] [nM] | SMILES | further results
1 | – | – | CC(=NNC(=S)Nc1ccccc1)[C@@H]1[C@H]2CC[C@H](C2)[C@H]1C/C=C\CCCC(=O)O (relative stereo) [5-endo-(6'-carboxyhex-2'-Z-enyl)-6-exo-(1'-[N-(phenylthiocarbamoyl)-hydrazono]-ethyl-bicyclo [2,2,1]heptane, reference compound] | Kb [1]: 14.3 nM
2 | – | – | CC(=NOC(c1ccccc1)c1ccccc1)[C@@H]1C2CCC(CC2)[C@H]1CCCCOCC(=O)O (relative stereo) [Example 3, trans-5-(6'-Carboxy-5'-oxahexyl)-6-[1'-(O-diphenylmethoxyimino)ethyl]-bicyclo [2,2,2] octane] | prostacyclin-like activity as evidenced by antagonism of ADP [2]: very little prostacyclin-like activity
3 | 167 | – | CC(=NNC(=S)Nc1ccccc1)[C@@H]1C2CCC(CC2)[C@H]1CCCCOCC(=O)O (relative stereo) [Example 4, trans-5-(6'-Carboxy-5'-oxahexyl)-6-(1'-[N-(phenylthiocarbamoyl)-hydrazono]-ethyl)-bicyclo [2,2,2] octane] | inhibition of bronchoconstriction resulting from the PGH2 analogue ([3]; 0.3 mg/kg intravenous, 11,9-(epoxymethano) PGH2 0.35 μg/kg i.v.): markedly blocked the action of the PGH2 analogue; bronchoconstriction caused by compound itself ([3]; 0.3 mg/kg, control without prior administration of PGH2 analogue): did not itself lead to any observable bronchoconstriction; Kb [1]: 4.76 nM
4 | – | ~0.25 | COc1ccc(NC(=O)NN=C(C)[C@@H]2C3CCC(CC3)[C@H]2CCCCOCC(=O)O)cc1 (relative stereo) [Example 5, trans-5-(6'-Carboxy-5'-oxahexyl)-6-(7'-[N-(p-methoxyphenyl-carbamoyl)-hydrazono]-ethyl)-bicyclo [2,2,2] octane] | –
5 | – | 14.3 | CCCCCCNC(=S)NN=C(C)[C@@H]1C2CCC(CC2)[C@H]1CCCCOCC(=O)O (relative stereo) [Example 6, trans-5-(6'-Carboxy-5'-oxahexyl)-6'-(1'-[N-(hexylthiocarbamoyl)-hydrazono]-ethyl)-bicyclo [2,2,2] octane] | –
6 | 192 | 3.7 | CC(=NNC(=S)Nc1ccccc1)[C@@H]1C2CCC(CC2)[C@H]1CCCCCOCC(=O)O (relative stereo) [Example 8, trans-5-(7'-Carboxy-6'-oxaheptyl)-6-(1'-[N-(phenylthiocarbamoyl)-hydrazano]-ethyl)-bicyclo [2,2,2] octane] | –
7 | 294 | 17.9 | O=C(O)COCCOC[C@@H]1[C@@H]2CC[C@@H](C2)[C@H]1C=NOC(c1ccccc1)c1ccccc1 (relative stereo) [Example 10] | –
